Earlier results on two substances are cited in patent US20070092572A1, “Bone cement compositions and the like comprising an RNAIII-inhibiting peptide” (priority 2005, published 2007).

One data set concerns S. aureus 8325-4. As to conditions: Keratitis, rabbit, strain 8325-4, +RIP.
The test system of another data set is S. aureus MS. As to conditions: Osteomyelitis, rabbit, strain MS, +RIP.
In data set [1] the test system is S. aureus LS-1. Particulars: Sepsis, mouse, strain LS-1, +RIP.
The subject of data set [2] is S. aureus LS-1. Particulars: Arthritis, mouse, strain LS-1, +RIP.
The subject of another data set is S. aureus Smith diffuse. Particulars: Cellulitis/sepsis, mouse, strain Smith diffuse, +RIP.
In data set [3] the test system is MRSA, MRSE, VISA, VISE, GISA, GISE, MSSA, MSSE. As to conditions: Graft injection, rat, +RIP.
Another data set relates to S. aureus Newbould/AE-1. Particulars: Mastitis, cow, strain Newbould/AE-1, +RIP.
The test system of the next data set is S. aureus. Particulars: non-amidated versus amide form.

Like-named read-outs stand apart in the source and are kept apart here. Where no end group is shown, it is not given here.

“YSPWTNF(-NH2) (YSPWTNF-NH2) [RIP, amide form of a synthetic RIP analogue]”: the “% animals disease free” value with S. aureus 8325-4 was 40%; with S. aureus MS it was 58%; in the data set with S. aureus LS-1 [1] it was 44%; in the data set with S. aureus LS-1 [2] it was 60%; in the data set with S. aureus Smith diffuse, “Up to 100%”; in data set [3], “Up to 100%”. Further, in the data set with S. aureus Newbould/AE-1, the “% animals disease free” value is recorded as 70-100%.

On to “non-amidated form of synthetic RIP: non-amidated form of the synthetic RIP analogue YSPWTNF (YSPWTNF-OH)”, for which, in the data set on S. aureus, the “activity of the peptide form” value is “inactive”.
